Tested on: Staphylococcus aureus
Test: Antimicrobial examination of photopolymerized, washed adhesive films on slides
Format: cell-based
Conditions: adhesive with 5 wt.-% MDPB, film washed two days with water
Experimental: The above adhesives were applied to a slide and photopolymerized using a UV lamp.
In a Petri dish, a modified slide was covered with 30 ml of a Staphylococcus aureus suspension in PBS (→10^7 bacteria cells/ml) and then incubated accompanied by light shaking (50 rpm) for 1 h at 37° C. The bacterial suspension was then drawn off and the slide was washed with pure PBS (15+15 ml). The slide was then dried, transferred to a new Petri dish, covered with 30 ml 1.5% nutrient agar and then incubated at 37° C. A blind sample was then analogously tested in each case using a slide which was coated with adhesive without biocidal macromer.
The mixture was applied to a slide and photopolymerized with the help of a UV lamp. […] A slide which had been coated with adhesive without the biocidal monomer MDPH served as comparison.

With `C=C(C)C(=O)OCCCCCCCCCCCC[n+]1ccccc1.[Br-]` [MDPB, 12-methacryloyloxydodecylpyridinium bromide] the “bacterial growth on slide coated with polymerized adhesive” value was “no bacterial decay attack on the film itself” and the “bacterial growth on slide coated with polymerized adhesive” value (listed as MDPH) was “no bacterial attack”.

— US7553881B2, “Dental materials based on radically polymerizable macromers with antimicrobial effect” (Ivoclar Vivadent AG, priority 2006, dated 2009)
